{"source": "patent US6432403B1", "about": "“Antibodies to polypeptides having prenylcysteine carboxyl methlytransferase activity or inhibiting activity” (New York University, priority 1997, dated 2002)", "key": {"human pcCMT": {"biological_target": "T1, human pcCMT (Homo sapiens, UniProt O60725)", "T1 construct": "The 3.6-kb full-length HL60 pcCMT cDNA and an 852-bp cDNA fragment comprising the ORF were subcloned into the eukaryotic expression vectors; expressed in transfected cells; host or cells: COS-1 cells (pCDM8 vector, DEAE-dextran transfection); light membranes after nitrogen cavitation", "T1 sequence (O60725 whole entry, the tested form may be a part)": "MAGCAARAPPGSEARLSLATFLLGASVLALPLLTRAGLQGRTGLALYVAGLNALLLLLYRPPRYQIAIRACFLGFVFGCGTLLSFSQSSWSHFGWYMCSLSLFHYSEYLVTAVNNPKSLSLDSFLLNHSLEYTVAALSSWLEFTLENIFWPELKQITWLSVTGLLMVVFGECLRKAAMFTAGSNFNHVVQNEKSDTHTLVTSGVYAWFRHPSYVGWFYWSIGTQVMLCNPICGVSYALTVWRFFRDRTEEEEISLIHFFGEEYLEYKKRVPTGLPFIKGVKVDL", "experiment": "Carboxyl methylation of Rho GTPases by COS-1 cell membranes expressing human pcCMT (S-adenosyl-L-[methyl-3H]methionine labeling, SDS-PAGE, fluorography)", "assay_type": "biochemical", "conditions": "COS-1 membranes transfected with HL60 cDNA; read-out: ED50 for block of pcCMT activity toward Rho GTPases", "description": "FIGS. 5A and 5B show the carboxyl methylation of ras-related GTPases by COS-1 cell membranes expressing ectopic human pcCMT. In FIG. 5A, neutrophil cytosol (CS) containing a mixture of Rho family proteins complexed with Rho-GDI (lanes 2, 3, 6, 7, 10, 11) or RhoA-GDI complexes partially purified from CS (lanes 4, 8, 12) were incubated with the methyl donor S-adenosyl-L-[methyl-^3H]methionine and light membranes derived from nitrogen cavitation of human neutrophils (lanes 1-4) or COS-1 cells transiently transfected with either human pcCMT (lanes 5-8) or vector alone (lanes 9-12). In some reactions (lanes 3, 7, 11) a competitive pcCMT inhibitor, AFC, was included. Reaction products were analyzed by SDS-PAGE and fluorography. The position of carboxyl methylated […] is indicated as is the position of protein phosphatase 2a (PP2a) that is methylated on a C-terminal leucine by an enzyme unrelated to pcCMT (Lee et al, 1993). […] Carboxyl methyltransferase activity was quantitated in membranes of COS-1 cells transfected with HL60 pcCMT using prenylcysteine analogs as defined substrates (Philips et al, 1995). […]"}, "GFP-Nras": {"system": "GFP-Nras", "experiment": "Subcellular localization of GFP-Nras in transfected COS-1 cells (epifluorescence microscopy)", "assay_type": "cell-based", "conditions": "200 μM during the 24-hour transfection", "description": "FIGS. 8A-8C show the effect of a pcCMT inhibitor (AFC) on the subcellular localization of Nras. In FIG. 8A, COS-1 cells were transiently transfected with GFP-Nras and observed live at 24 hours by epifluorescence microscopy to reveal both surface membrane (arrowheads) and intense perinuclear (Golgi) fluorescence. The position of the […] is marked (N). […] Bars indicate […].\nExpression of Recombinant pcCMT: The 3.6-kb full-length HL60 pcCMT cDNA and an 852-bp cDNA fragment comprising the ORF were subcloned into the eukaryotic expression vectors pCDM8 and pcDNA3.1 (Invitrogen, Carlsbad, Calif.). Myc-tagged pcCMT was made by adding a sequence encoding the 10-amino acid epitope of c-Myc recognized by monoclonal antibody 9E10 to the C terminus of pcCMT using patch PCR and subcloning into pcDNA3.1. pcCMT tagged at the C terminus with GFP was generated by subcloning the pcCMT ORF into the expression vector pGFP-N3 (Clontech). For pcCMT enzymatic assays, COS-1 cells were grown in 10-cm dishes and transfected with pcCMT with DEAE-dextran as described (Aruffo et al, 1987). For fluorescence microscopy, exponentially growing COS-1, CHO, and NIH3T3 cells were plated the day prior to transfection at 50-60% confluence and transfected with 2 μg of DNA using LipofectAMINE (Life Technologies, Inc.), Gaithersburg, Md.) according to the manufacturer's instructions. […]"}}, "note": "Entries after “also recorded” stand apart in the source; their conditions may differ.", "data": [{"smiles": "CC(=O)N[C@@H](CSC/C=C(\\C)CC/C=C(\\C)CCC=C(C)C)C(=O)O", "note": "[AFC, N-acetyl-S-trans,trans-farnesyl-L-cysteine]", "values": [{"measurement": "EC50", "setting": "human pcCMT", "value": 10, "unit": "µM"}, {"measurement": "Effect on membrane localization of GFP-Nras", "setting": "GFP-Nras", "value": "blocked; also recorded: predominantly cytosolic localization"}]}]}
